The nature of one experiment: cells. The format is functional.
In a further experiment the target is Kallikrein-7 (Homo sapiens, UniProt P49862). The experiment in a line: Fluorescence Intensity-based biochemical primary high throughput dose response assay to identify activators of kallikrein-7 (K7) zymogen.
The target of experiment [1] is Mitogen-activated protein kinase 10 (Homo sapiens, UniProt P53779). The experiment in a line: Dose response biochemical screening assay for inhibitors of c-Jun N-Terminal Kinase 3 (JNK3). [Related pubchem assays: 746 ].
Chain of Mitogen-activated protein kinase 10 (P53779 whole entry): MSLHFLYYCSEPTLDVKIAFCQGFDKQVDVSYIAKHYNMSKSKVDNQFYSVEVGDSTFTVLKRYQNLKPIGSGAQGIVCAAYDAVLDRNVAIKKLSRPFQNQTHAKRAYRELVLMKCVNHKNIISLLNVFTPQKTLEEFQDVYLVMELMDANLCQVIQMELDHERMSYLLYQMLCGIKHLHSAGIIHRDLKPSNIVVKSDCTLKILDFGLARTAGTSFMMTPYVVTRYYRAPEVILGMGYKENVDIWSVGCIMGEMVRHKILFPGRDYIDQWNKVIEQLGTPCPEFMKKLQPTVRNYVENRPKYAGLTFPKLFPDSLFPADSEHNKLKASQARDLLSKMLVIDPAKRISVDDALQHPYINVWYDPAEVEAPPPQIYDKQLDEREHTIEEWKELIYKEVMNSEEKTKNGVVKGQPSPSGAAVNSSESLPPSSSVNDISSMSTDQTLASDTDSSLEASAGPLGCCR
The target in experiment [2] is T1, Zinc finger protein mex-5 (Caenorhabditis elegans, UniProt Q9XUB2).
T1 sequence (Q9XUB2 whole entry): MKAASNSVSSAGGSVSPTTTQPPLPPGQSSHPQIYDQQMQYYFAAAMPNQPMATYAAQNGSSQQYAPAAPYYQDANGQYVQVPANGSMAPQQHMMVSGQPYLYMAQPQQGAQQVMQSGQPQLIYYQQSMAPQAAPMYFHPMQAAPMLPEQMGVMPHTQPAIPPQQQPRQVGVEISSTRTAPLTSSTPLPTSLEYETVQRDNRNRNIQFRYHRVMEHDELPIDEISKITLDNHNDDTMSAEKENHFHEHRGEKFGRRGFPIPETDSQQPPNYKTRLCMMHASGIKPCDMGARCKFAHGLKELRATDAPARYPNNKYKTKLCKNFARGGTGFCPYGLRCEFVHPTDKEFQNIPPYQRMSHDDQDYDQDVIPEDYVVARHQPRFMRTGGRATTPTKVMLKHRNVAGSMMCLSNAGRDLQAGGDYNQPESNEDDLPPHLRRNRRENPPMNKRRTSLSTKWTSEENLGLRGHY
The experiment in a line: MEX-5/TCR-2 RNA interaction inhibitors, dose response, biochemical, C. elegans, fluorescence polarization (AID 1960).

In experiment [3] the target is T2, Carboxy-terminal domain RNA polymerase II polypeptide A small phosphatase 1 (Homo sapiens, UniProt Q9GZU7).
T2 sequence (Q9GZU7 whole entry): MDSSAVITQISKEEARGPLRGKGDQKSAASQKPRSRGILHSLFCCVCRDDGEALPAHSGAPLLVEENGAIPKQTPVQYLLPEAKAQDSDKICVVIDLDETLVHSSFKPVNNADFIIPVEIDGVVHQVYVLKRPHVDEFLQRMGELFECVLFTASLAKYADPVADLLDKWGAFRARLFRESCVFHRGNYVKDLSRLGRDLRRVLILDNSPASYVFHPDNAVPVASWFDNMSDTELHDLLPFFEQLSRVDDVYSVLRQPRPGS
The experiment in a line: inhibitors of CTDSP1, concentration-response testing, biochemical assay, absorbance-based, actives from ultra-high-throughput screening (AID 540297). In kind it is functional.

Experiment [4] addresses Glucose-6-phosphate 1-dehydrogenase (Homo sapiens, UniProt P11413). The experiment in a line: human G6PD enzyme inhibitors, dose response, selectivity assay for P. falciparum G6PD inhibitor project, biochemical, fluorescence (AID 504792). In kind it is functional.
Experiment [5] has as its target T3, RNA-binding protein pos-1 (Caenorhabditis elegans, UniProt G5EF15).
T3 sequence (G5EF15 whole entry): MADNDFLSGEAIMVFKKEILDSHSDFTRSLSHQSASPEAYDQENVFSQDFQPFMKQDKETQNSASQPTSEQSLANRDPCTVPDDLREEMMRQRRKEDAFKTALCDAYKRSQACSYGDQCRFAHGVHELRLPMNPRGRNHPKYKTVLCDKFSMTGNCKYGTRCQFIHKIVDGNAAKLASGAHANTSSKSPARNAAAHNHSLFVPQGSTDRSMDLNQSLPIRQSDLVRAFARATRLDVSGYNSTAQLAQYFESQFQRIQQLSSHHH
The experiment in a line: inhibitors of POS-1/mex-3 RNA binding, dose response, biochemical, fluorescence polarization (AID 1964).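 Note: purified POS-1 fused to maltose binding protein made in E. coli; potency of compounds blocking POS-1 binding to fluorescent RNA.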

For experiment [6], the target named is 1-phosphatidylinositol 4,5-bisphosphate phosphodiesterase gamma-1 (Homo sapiens, UniProt P19174). The experiment in a line: Counterscreen for inhibitors of phospholipase C isozymes (PLC-B3): Fluorescence-based biochemical high throughput dose response assay to identify inhibitors of phospholipase C isozymes (PLC-gamma1).
In experiment [7] the target is 1-phosphatidylinositol 4,5-bisphosphate phosphodiesterase beta-3 (Homo sapiens, UniProt Q01970). The experiment in a line: Fluorescence-based biochemical high throughput dose response assay to identify inhibitors of phospholipase C isozymes (PLC-B3).
Experiment [8] deals with T4, Microphthalmia-associated transcription factor (Homo sapiens, UniProt O75030).
T4 sequence (O75030 whole entry): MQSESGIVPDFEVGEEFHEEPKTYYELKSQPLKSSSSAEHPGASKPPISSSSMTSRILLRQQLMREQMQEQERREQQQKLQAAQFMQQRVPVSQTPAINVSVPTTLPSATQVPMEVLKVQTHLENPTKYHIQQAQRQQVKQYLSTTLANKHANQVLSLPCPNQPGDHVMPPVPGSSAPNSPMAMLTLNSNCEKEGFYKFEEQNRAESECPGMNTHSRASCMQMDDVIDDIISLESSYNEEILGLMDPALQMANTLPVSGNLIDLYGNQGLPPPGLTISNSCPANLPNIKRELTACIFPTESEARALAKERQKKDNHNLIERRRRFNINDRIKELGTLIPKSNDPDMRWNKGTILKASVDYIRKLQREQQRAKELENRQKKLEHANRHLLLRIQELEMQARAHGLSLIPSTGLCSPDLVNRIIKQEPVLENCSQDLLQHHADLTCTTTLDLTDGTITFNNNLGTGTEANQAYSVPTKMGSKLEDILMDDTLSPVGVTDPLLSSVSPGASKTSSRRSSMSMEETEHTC
The experiment in a line: TRPM1 promoter luciferase signal decrease, dose response, MITF inhibitor project, cell-based, SK-MEL-5, cherry-picked, set 3 (AID 493073).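 Note: SK-MEL-5 melanoma cells with luciferase driven by the MITF target TRPM1 promoter.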 The format is functional.

A short description of experiment [9]: reduction of Shn3 3'UTR firefly luciferase signal, dose response, Schnurri-3 inhibitor project, cell-based, Clone20 osteoblasts, cherry-pick, set 2 (AID 720490).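 Note: actives lower the luminescence signal as inhibitors.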 The format is functional.
In a further experiment the target is Paired box protein Pax-8 (Homo sapiens, UniProt Q06710). The experiment in a line: inhibitors of PAX8-driven TPO luciferase reporter, dose response, RMG-I cells, cherry-pick (AID 687027).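 Note: luciferase reporter driven by Pax8 target thyroperoxidase promoter measured by SteadyGlo luminescence.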 In kind it is functional, cell-based.
Chain of Paired box protein Pax-8 (Q06710 whole entry): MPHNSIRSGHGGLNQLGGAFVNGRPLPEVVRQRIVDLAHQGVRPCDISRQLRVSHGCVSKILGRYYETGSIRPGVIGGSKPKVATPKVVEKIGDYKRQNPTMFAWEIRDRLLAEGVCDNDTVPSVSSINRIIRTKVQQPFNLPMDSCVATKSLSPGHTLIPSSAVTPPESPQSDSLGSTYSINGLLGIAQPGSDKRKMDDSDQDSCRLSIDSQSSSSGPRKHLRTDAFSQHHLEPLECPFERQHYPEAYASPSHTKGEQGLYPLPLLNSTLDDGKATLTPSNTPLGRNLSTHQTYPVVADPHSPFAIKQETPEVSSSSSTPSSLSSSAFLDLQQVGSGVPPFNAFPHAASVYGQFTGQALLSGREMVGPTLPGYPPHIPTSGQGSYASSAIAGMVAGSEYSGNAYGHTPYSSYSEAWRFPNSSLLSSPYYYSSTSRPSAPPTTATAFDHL
A short description of experiment [10]: Shn3 3'UTR reporter inhibitors, dose response, cell-based, Clone20 osteoblasts, firefly luciferase, cherry-picked (AID 624132).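 Note: firefly luciferase luminescence from reporter carrying the Shn3 3'UTR in osteoblasts.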 The format is functional.
Experiment [11] addresses Glutathione-S-transferase (Schistosoma japonicum, UniProt Q26513). The experiment in a line: biotin-GST/anti-GST TR-FRET signal inhibitors, dose response, artefact control for Vif-APOBEC3G degradation inhibitor project, biochemical (AID 1117362). In kind it is functional. On the technique in general: TR-FRET usually uses a lanthanide donor and a delayed reading to cut background.

The target of experiment [12] is Ras and Rab interactor 1/Tyrosine-protein kinase ABL1 (Homo sapiens, UniProt P00519+Q13671). In kind it is functional.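 Note: biochemical TR-FRET dose-response test measuring inhibition of binding between Rin1 and Abl proteins.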
Chain of Ras and Rab interactor 1/Tyrosine-protein kinase ABL1 (P00519 whole entry): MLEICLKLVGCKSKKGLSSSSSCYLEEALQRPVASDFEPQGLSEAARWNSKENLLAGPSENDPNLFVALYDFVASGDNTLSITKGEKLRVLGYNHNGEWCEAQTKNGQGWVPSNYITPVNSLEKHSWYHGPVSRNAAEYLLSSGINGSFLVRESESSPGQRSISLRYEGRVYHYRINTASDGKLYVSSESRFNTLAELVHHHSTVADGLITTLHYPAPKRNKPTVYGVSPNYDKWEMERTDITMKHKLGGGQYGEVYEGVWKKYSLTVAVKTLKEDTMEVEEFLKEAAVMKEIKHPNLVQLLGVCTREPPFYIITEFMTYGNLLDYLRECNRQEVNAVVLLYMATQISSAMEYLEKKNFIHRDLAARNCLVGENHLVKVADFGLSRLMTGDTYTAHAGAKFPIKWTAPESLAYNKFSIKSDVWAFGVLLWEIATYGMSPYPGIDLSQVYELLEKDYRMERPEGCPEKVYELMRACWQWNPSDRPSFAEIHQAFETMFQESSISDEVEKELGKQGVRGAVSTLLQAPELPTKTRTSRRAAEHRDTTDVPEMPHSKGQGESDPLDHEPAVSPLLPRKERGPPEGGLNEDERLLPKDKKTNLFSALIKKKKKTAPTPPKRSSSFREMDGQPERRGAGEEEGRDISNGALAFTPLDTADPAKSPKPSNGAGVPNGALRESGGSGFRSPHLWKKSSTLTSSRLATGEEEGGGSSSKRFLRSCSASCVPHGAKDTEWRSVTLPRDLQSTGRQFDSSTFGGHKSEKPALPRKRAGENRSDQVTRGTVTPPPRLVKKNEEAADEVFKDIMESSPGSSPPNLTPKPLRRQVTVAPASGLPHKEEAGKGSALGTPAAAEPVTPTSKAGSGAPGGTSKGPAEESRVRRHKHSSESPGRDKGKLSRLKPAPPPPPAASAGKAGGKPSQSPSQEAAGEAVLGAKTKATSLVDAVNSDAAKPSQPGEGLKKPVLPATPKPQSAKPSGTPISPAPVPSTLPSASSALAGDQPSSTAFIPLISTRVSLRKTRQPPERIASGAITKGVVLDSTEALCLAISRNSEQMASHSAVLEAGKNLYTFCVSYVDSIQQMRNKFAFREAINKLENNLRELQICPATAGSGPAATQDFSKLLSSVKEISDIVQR
Chain of Ras and Rab interactor 1/Tyrosine-protein kinase ABL1 (Q13671 whole entry): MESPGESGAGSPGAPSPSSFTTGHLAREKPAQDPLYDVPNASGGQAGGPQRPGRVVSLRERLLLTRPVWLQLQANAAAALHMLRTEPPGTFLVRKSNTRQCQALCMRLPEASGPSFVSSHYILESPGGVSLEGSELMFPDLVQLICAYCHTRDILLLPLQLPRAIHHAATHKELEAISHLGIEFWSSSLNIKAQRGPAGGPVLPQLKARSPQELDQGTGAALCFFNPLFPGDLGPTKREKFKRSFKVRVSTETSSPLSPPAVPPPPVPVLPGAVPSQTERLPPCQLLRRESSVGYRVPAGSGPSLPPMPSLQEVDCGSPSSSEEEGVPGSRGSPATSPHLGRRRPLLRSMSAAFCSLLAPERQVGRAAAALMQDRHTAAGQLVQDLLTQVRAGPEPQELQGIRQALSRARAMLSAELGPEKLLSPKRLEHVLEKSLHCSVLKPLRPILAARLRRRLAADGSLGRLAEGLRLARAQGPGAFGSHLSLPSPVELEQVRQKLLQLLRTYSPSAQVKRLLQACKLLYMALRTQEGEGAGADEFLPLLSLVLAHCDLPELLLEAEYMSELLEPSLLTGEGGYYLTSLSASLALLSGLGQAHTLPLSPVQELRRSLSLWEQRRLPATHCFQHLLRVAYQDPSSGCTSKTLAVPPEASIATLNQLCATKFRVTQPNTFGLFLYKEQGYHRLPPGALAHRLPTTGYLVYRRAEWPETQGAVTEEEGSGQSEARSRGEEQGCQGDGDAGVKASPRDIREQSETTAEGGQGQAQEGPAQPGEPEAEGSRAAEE
Another experiment addresses Nonstructural protein 1 (Influenza A virus, UniProt Q194T2). In kind it is functional, Influenza A virus (A/California/07/2009(H1N1)).
A short description of experiment [13]: HepG2 cell cytotoxicity, dose response, cytotoxicity control for Shn3 inhibitor project, CellTiter-Glo, cherry-picked (AID 624134). The format is functional, cell-based. For orientation: Cellular ATP, detected with luciferase, serves as a proxy for viable cell number.
A short description of experiment [14]: inhibitors of clade B AD8 Env fusion, dose response, cell-based, cherry-pick (AID 652062).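 Note: luciferase signal from cell-cell fusion driven by HIV-1 clade B AD8 Env; potency is for inhibitors of fusion seen as a drop in luminescence.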 The format is functional.
Experiment [15] can be described thus: ZM109 Env clade C HIV-1 fusion inhibitors, dose response, HeLa effector, CEM target cells, luciferase, cherry-pick (AID 652058). In kind it is functional, cell-based.
A short description of experiment [16]: off-target signal loss in HeLa-CEM21 co-culture – HeLa F-luc CTL cells, cherry-picked, counter-screen for HIV-1 Env fusion inhibitor project, dose response (AID 652040).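 Note: potency for signal decrease marking cytotoxic or nonspecific inhibition.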 In kind it is functional, cell-based.
Experiment [17] can be described thus: control 3'UTR Renilla luciferase suppression, dose response, counter-screen for Shn3 inhibitor project, cell-based, Clone20-Shn3RL, cherry-picked (AID 624133). The format is functional. Background: A counterscreen serves to expose hits that act by an unwanted route or on another target.
A short description of experiment [18]: inhibitors of HIV Env-driven cell fusion, dose response, cherry-pick (AID 652057). The format is functional, cell-based.
The nature of experiment [19]: SNU-C1 cell viability reduction, dose response, CellTiter-Glo luminescence (AID 1117323). In kind it is functional, cell-based.
Experiment [20] is described as follows: cytotoxicity toward HT-29 cells – cell-based, CellTiter-Glo luminescence, IC50, dose response (AID 1117330). The format is functional.
Experiment [21] is described as follows: HeLa 2N DNA content increase, dose response, cell-based, IC50 (AID 1117349). In kind it is functional.
A short description of experiment [22]: HeLa 4N DNA content increase, dose response, cell-based, IC50 (AID 1117351). The format is functional.
Experiment [23] can be described thus: cytotoxicity toward Colo320 cells – cell-based, CellTiter-Glo luminescence, IC50, dose response (AID 1117334). In kind it is functional. Particulars: COLO 320.
The nature of experiment [24]: RKO cell viability reduction, dose response, CellTiter-Glo luminescence (AID 1117322). The format is functional.
Experiment [25] in a line: HCT116 cell viability decrease, GSK3B pretreatment – CellTiter-Glo, IC50, dose response (AID 1117339). The format is functional. Particulars: HCT-116.
Experiment [26] can be described thus: CellTiter-Glo luminescent dose response of DLD-1 viability loss (AID 1117352). In kind it is functional.
Experiment [27] is described as follows: cytotoxicity toward HCT116 cells – cell-based, CellTiter-Glo luminescence, IC50, dose response (AID 1117332). The format is functional. Particulars: HCT-116.
Experiment [28] in a line: Concentration-dependent survival of SW480 colon cancer line, luminescence detection with CellTiter-Glo, half-maximal inhibitory concentration (AID 1117338). In kind it is functional.

Structures are written as SMILES. Active and inactive are the calls of the source.

Chain of Glutathione-S-transferase (Q26513 whole entry): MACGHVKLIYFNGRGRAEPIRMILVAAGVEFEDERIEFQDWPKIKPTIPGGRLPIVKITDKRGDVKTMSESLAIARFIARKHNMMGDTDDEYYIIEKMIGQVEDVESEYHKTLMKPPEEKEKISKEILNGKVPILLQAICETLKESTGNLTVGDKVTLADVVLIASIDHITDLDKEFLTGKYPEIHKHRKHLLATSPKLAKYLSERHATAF
Chain of Kallikrein-7 (P49862 whole entry): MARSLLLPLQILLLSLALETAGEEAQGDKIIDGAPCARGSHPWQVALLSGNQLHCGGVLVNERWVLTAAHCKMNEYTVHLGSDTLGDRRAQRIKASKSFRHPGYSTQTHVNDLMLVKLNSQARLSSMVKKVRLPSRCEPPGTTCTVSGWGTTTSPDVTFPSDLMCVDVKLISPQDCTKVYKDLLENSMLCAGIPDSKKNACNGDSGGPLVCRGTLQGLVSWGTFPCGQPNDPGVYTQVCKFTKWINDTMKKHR
Chain of Nonstructural protein 1 (Q194T2 whole entry): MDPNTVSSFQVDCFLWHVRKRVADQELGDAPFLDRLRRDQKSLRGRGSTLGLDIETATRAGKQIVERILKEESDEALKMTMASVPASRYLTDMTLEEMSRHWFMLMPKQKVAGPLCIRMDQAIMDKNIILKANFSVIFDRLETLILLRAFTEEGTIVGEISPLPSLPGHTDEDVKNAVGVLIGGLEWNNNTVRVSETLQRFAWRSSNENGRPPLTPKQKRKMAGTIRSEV
Chain of Glucose-6-phosphate 1-dehydrogenase (P11413 whole entry): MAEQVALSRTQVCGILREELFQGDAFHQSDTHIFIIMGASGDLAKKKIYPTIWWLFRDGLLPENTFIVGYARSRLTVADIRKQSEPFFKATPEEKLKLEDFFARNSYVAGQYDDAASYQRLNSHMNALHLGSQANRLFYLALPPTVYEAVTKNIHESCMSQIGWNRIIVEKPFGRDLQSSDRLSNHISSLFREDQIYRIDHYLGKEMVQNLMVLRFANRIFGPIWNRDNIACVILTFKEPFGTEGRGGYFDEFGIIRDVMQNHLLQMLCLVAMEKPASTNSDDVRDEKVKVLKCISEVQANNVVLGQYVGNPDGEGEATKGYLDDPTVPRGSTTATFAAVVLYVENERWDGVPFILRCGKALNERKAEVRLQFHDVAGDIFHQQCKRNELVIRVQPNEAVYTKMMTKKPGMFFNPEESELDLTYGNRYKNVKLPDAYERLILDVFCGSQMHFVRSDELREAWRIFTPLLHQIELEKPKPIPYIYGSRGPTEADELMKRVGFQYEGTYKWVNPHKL

For `CCOC(=O)COc1ccc2c(c1)C(=O)CC1(CCCCC1)O2`, the IC50 in “cells” is 1.18 µM (active). For the same compound, the EC50 at Kallikrein-7 was > 69.5 µM (inactive).

Take `CCOc1cccc(NC(=O)C2CCCN(S(=O)(=O)c3ccc(-n4cnnn4)cc3)C2)c1` (configuration not stated): in experiment [1], the IC50 is > 93.1 µM (not active).

On to `O=C(O)c1ccc(-n2c(-c3cc(-c4ccco4)[nH]n3)n[nH]c2=S)cc1`, for which the values for the EC50 in experiment [2] and in experiment [5] were 4.74 µM (inconclusive) and 4.19 µM (inconclusive), respectively. The IC50 was 1.59 µM (active) in [3], > 80 µM (inactive) in experiment [4], 102 µM (inactive) in experiment [6] and > 122 µM (inactive) in experiment [7].

With `Cc1ccc(-c2cn3cc(C)ccc3n2)cc1`, the AC50 in [8] is 2.03 µM (active); in experiment [9] it was 7.73 µM (active); at Paired box protein Pax-8, 3.46 µM (active); in experiment [10], 1.32 µM (active).

Turning to `CC[n+]1ccc(C)c2cc([S+]([O-])C(F)(F)F)ccc21` (configuration not stated), in [11], the IC50 is 55.4 µM (active).

Take `Cc1c(F)cccc1NC(=O)CCCCCC1NC(=O)NC1C` (configuration not stated): the IC50 in experiment [12] was 0.0143 µM (active); at Nonstructural protein 1, 1.18 µM (active); in experiment [11], 29.8 µM (active).

With `CCN1CCN(c2cc(C)c3cc(NC(=O)c4ccc(C)c(C)c4)ccc3n2)CC1`, the EC50 at Kallikrein-7 was 17.2 µM (inactive).

As to `COC(=O)c1cccc(NC(=O)CN2CCC(NC(=O)c3cc(OC)c(OC)c(OC)c3)CC2)c1`, the IC50 in experiment [1] is 1.7 µM (active).

Turning to `CCOc1ccc(N(C)S(=O)(=O)c2cc(-c3cc(C)no3)ccc2C(C)C)cc1`, the AC50 in experiment [13] was 58.4 µM (active); in [14], 7.87 µM (active); in [9], 5.22 µM (active); in experiment [15], 3 µM (active); in [16], 1.27 µM (active); in experiment [17], 16.7 µM (active). Further, the AC50 in experiment [18] is 1.32 µM (active); in [10], 4.13 µM (active).

On to `Cc1ccc2nc(N)[nH]c(=O)c2c1Sc1ccncc1`, for which the IC50 in experiment [19] is > 20 µM (inactive); in [20], 4.75 µM (active); in [21], > 10 µM (inactive); in experiment [22] it was > 10 µM (inactive); in [23], > 20 µM (inactive); in experiment [24], 0.343 µM (active). Moreover, the IC50 in experiment [25] was 0.83 µM (active); in experiment [26] it was > 20 µM (inactive); in [27], 3.5 µM (active); in experiment [28] it was 2.24 µM (active).

Consider `COc1c(C)c2c(c(O)c1C/C=C(\C)CCC(=O)OCCN1CCOCC1)C(=O)OC2` [MYCOPHENOLATE MOFETIL], for which the IC50 is > 20 µM (inactive) in experiment [19]; > 20 µM (inactive) in [20]; > 10 µM (inactive) in experiment [21]; > 10 µM (inactive) in experiment [22]; 0.001 µM (active) in experiment [23]; 0.165 µM (active) in experiment [24]. The IC50 was 0.0498 µM (active) in experiment [25], > 20 µM (inactive) in experiment [26], 0.0672 µM (active) in experiment [27] and 2.6 µM (active) in experiment [28].

One may read the IC50 as the concentration needed to halve the response being measured. By EC50 is commonly meant the concentration needed to bring the measured effect to its halfway point. As a reminder, the AC50 is the concentration at which the activity in the assay is half-maximal.

(Values after ChEMBL document CHEMBL1201862, “PubChem BioAssay data set” (2004).)
